Inconclusive results are not listed. Activity calls are given as the source filed them. How the calls were made is not given here.
tested on: Mycobacterium tuberculosis non-replicating, growth inhibition; experiment: growth inhibition of non-replicating M. tuberculosis (AID 488890)

Row | SMILES | IC50
1 | COc1ccc(C(=O)COC(=O)c2ccccc2O)c(OC)c1 | 1.46 µM
2 | NC(=O)N/N=C\c1cc(Br)ccc1O | 4.2 µM
3 | O=C(N/N=C/c1cc(Br)c(Br)s1)c1ccncc1 | 3.18 µM
4 | Cc1[nH]nc2c1C(c1ccc(-c3ccc(Cl)cc3)o1)C(C#N)=C(N)O2 (stereo unspecified) | 2.24 µM
5 | CCC(=O)Nc1nc2ccccc2n1Cc1ccc(Cl)cc1 | 0.84 µM
6 | Cc1cccnc1NC(=O)C1COc2ccccc2O1 (stereo unspecified) | 29.6 µM (inactive)
7 | CCN(CC)C(=O)c1sc2nc(-c3ccccc3)ccc2c1N | 14.7 µM (inactive)
8 | CC(/C=C\C=C\c1ccccc1)=N\NC(=O)c1cncc(Br)c1 | 31.2 µM (inactive)
9 | CCc1cc(OCCCCNCc2ccccc2)ccc1Cl | 11.3 µM (inactive)
10 | C#CCSc1nnc(-c2ccc(O)cc2)o1 | 7.34 µM
11 | CCCN(CCC)S(=O)(=O)c1ccc(C(=O)Nc2nnc(-c3cccc(OC)c3)o2)cc1 | 11.3 µM (inactive)
12 | O=C(NC(=S)N1CCN(Cc2ccc3c(c2)OCO3)CC1)c1ccc(Cl)cc1 | 33.4 µM (inactive)
13 | CCOc1ccccc1OC(=O)c1cc2ccccc2oc1=O | 21.5 µM (inactive)
14 | Nc1ccc2c(c1)oc1ccccc12 | 2.05 µM
15 | COC(=O)c1ccccc1NC(=O)C1CC(c2ccc(F)cc2)=NO1 (stereo unspecified) | 10.2 µM (inactive)
16 | COc1ccc(C(=O)COC(=O)c2ccc(Cl)nc2)c(OC)c1 | 10.7 µM (inactive)
17 | O=[N+]([O-])c1ccc(/C=N/n2c(CO)nc3ccccc32)s1 | 1.18 µM
18 | CN(C)Cc1ccccc1Sc1ccc(Br)cc1 | 27.7 µM (inactive)
19 | Cc1ccc2nc(/N=C(\N)NC(=O)NC3CCCCC3)nc(C)c2c1 | 8.34 µM
20 | Cc1cc(/C=N\NC(=O)c2cccs2)c(C)n1-c1ccc2ncccc2c1 | > 25 µM (inactive)
21 | CN(/N=C/c1ccc([N+](=O)[O-])o1)c1ccccc1 | 13.4 µM (inactive)
22 | CC1=NN(C(=O)COc2ccccc2C)C(O)(c2ccc(Cl)cc2)C1 (stereo unspecified) | 1.4 µM
23 | CC(NC(=O)c1cc([N+](=O)[O-])cc([N+](=O)[O-])c1)c1ccc(-n2ccnc2)cc1 (stereo unspecified) | 5.42 µM

Row | SMILES | IC50
24 | Cc1nc2scc(-c3ccccc3)c2c(=O)o1 | 14.8 µM (inactive)
25 | CCCNC1=C(N(C(C)=O)c2cccc(F)c2)C(=O)c2ccccc2C1=O | 5.89 µM
26 | O=C(CCNc1cccc(Cl)c1)c1ccco1 | 5.4 µM
27 | Cc1ccccc1N1CCN(Cc2ccc([N+](=O)[O-])o2)CC1 | 3.25 µM
28 | COc1ccc(NC(=O)c2cnc(SC)nc2)cc1 | 28.9 µM (inactive)
29 | O=C(N/N=C/c1ccccn1)c1ccccc1 | 14.6 µM (inactive)
30 | CCCc1cc(NCCCn2ccnc2)n2nc(C)c(-c3ccccc3)c2n1 | 19.5 µM (inactive)
31 | CCc1ccc(N2NC(=O)/C(=C/C=C/c3ccco3)C2=O)cc1 | 3.65 µM
32 | O=c1c2ccc(Cl)cc2nc(-c2ccc([N+](=O)[O-])cc2)n1O | 1.3 µM
33 | CCc1ccc(OCC(=O)NNC(=O)c2cnccn2)c(Br)c1 | 4.69 µM
34 | Cn1cccc1/C=N/NC(=O)c1ccncc1 | 1.96 µM
35 | CCOC(=O)c1c(C)[nH]c(C)c1C(=O)COC(=O)c1ccc([N+](=O)[O-])s1 | 1.65 µM
36 | CCC(C)NCCOc1ccc(C(C)(C)c2ccccc2)cc1 (stereo unspecified) | 10.4 µM (inactive)
37 | O=C(COC(=O)c1cc(Br)ccc1O)Nc1ccc2c(c1)OCO2 | 7.79 µM
38 | CC1=C(/C=C/C(C)=N\NC(=O)c2ccncc2)C(C)(C)CCC1 | 1.15 µM
39 | CC1(C)CC(=O)C2=C(C1)OC(N)=C([N+](=O)[O-])C2c1ccc(C#N)s1 (stereo unspecified) | 11.1 µM (inactive)
40 | COC(=O)c1ccccc1Sc1ncnc2onc(C)c12 | 6.54 µM
41 | CC(=O)N(Cc1ccc(F)cc1)C1=C(NCCc2ccccc2)C(=O)c2ccccc2C1=O | 4.4 µM
42 | CCOC(=O)N/N=C\c1ccc([N+](=O)[O-])s1 | 9.1 µM
43 | NC(=O)C1(N2CCCCC2)CCN(C2CC(=O)N(CCc3ccccc3)C2=O)CC1 (stereo unspecified) | 13 µM (inactive)
44 | COc1ccccc1OCC(=O)N/N=C/C=C/c1ccc([N+](=O)[O-])o1 | 2.78 µM
45 | Cc1nc2c(=O)n(C)c(=O)nc-2n(C)n1 | 8.25 µM
46 | CCOC(=O)COc1ccc(C(=O)NC2CCCCC2)cc1 | 4.04 µM

Reference: PubChem BioAssay AID488890 (Southern Research Specialized Biocontainment Screening …, 2010)
